# Source: ChEMBL document CHEMBL5550205, “Discovery of a NCOA4 Degrader for Labile Iron-Dependent Ferroptosis Inhibition” (J Med Chem, 2024)
# Activity calls are given as the source filed them. The calls are words filed in the database; no cut-off is given here.
# What was measured:
# AML12 [1] = experiment: Protection against RSL3-induced ferroptosis in mouse AML12 cells assessed as attenuation of Fe2+ level by fluorescence imaging analysis; type: functional, cell-based
# Mus musculus [2] = experiment: Inhibition of CCl4-induced ferroptosis in acute liver injury C57BL/6 mouse model assessed as decrease in TNF-alpha expression in liver at 10 to 30 mg/kg, ip pretreated with compound for 3 hrs followed by CCl4 induction and measured after 12 to 24 hrs by q-PCR analysis; type: functional, organism-based; settings: dose 10-30 mg/kg, time 15-27 hrs
# Mus musculus [3] = experiment: Inhibition of CCl4-induced ferroptosis in acute liver injury C57BL/6 mouse model assessed as restoration of liver color fading at 10 to 30 mg/kg, ip pretreated with compound for 3 hrs followed by CCl4 induction and measured after 12 to 24 hrs; type: functional, organism-based; settings: dose 10-30 mg/kg, time 15-27 hrs
# AML12 [4] = experiment: Protection against Erastin-induced ferroptosis in mouse AML12 cells assessed as reduction in lipid peroxidation level at 200 nM measured for 48 hrs; type: functional, cell-based
# Mus musculus [5] = experiment: Inhibition of CCl4-induced ferroptosis in acute liver injury C57BL/6 mouse model assessed as reduction in MDA content in liver at 10 to 30 mg/kg, ip pretreated with compound for 3 hrs followed by CCl4 induction and measured after 12 to 24 hrs; type: functional, organism-based; settings: dose 10-30 mg/kg, time 15-27 hrs
# Mus musculus [6] = experiment: Inhibition of CCl4-induced ferroptosis in acute liver injury C57BL/6 mouse model assessed as downregulation of NCOA4 level at 10 to 30 mg/kg, ip pretreated with compound for 3 hrs followed by CCl4 induction and measured after 12 to 24 hrs by Western blot analysis; type: functional, organism-based; settings: dose 10-30 mg/kg, time 15-27 hrs
# AML12 [7] = experiment: Protection against iFSP1-induced ferroptosis in mouse AML12 cells assessed as reduction in lipid peroxidation level at 200 nM measured for 48 hrs; type: functional, cell-based
# AML12 [8] = experiment: Protection against FINO2-induced ferroptosis in mouse AML12 cells assessed as attenuation of Fe2+ level by fluorescence imaging analysis; type: functional, cell-based
# [9] = biological target: T1, von Hippel-Lindau disease tumor suppressor/Nuclear receptor coactivator 4 (Homo sapiens, UniProt P40337+Q13772); experiment: PROTAC activity at NCOA4/VHL in human HeLa cells assessed as induction of NCOA4 degradation at 50 nM measured 36 to 48 hrs by Western blot analysis; type: cell-based; settings: time 36-48 hrs
# T1 sequence (P40337 whole entry, looked up): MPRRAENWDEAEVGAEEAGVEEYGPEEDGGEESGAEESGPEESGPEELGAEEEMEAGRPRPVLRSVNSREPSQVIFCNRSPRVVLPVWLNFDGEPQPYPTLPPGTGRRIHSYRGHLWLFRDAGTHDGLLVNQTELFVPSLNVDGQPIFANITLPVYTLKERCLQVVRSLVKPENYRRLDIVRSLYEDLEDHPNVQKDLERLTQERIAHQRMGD
# T1 sequence (Q13772 whole entry, looked up): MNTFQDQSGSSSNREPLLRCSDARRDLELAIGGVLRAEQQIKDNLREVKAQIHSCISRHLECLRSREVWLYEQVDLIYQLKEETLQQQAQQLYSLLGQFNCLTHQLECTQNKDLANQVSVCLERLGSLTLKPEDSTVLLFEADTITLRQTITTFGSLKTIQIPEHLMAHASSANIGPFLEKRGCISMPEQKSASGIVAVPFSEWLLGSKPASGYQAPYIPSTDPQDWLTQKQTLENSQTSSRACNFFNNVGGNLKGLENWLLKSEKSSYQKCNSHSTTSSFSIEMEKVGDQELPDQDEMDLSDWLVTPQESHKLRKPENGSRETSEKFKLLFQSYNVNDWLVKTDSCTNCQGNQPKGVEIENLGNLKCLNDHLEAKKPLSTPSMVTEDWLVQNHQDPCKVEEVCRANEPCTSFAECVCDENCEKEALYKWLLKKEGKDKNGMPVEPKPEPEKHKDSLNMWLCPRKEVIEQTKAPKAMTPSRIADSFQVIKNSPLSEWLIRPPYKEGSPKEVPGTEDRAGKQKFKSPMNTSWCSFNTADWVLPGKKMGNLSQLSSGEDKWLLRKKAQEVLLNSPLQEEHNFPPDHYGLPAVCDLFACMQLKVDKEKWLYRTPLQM
# AML12 [10] = experiment: Protection against CCl4-induced ferroptosis in mouse AML12 cells assessed as cell viability in presence of Ferrostatin-1; type: functional, cell-based
# Mus musculus [11] = experiment: Inhibition of CCl4-induced ferroptosis in acute liver injury C57BL/6 mouse model assessed as reduction in TNF-alpha level in serum at 10 to 30 mg/kg, ip pretreated with compound for 3 hrs followed by CCl4 induction and measured after 12 to 24 hrs by ELISA analysis; type: functional, organism-based; settings: dose 10-30 mg/kg, time 15-27 hrs
# [12] = biological target: von Hippel-Lindau disease tumor suppressor/Nuclear receptor coactivator 4 (Mus musculus, UniProt P40338+Q5U4H9); experiment: PROTAC activity at NCOA4/VHL in mouse AML12 cells assessed as reduction in intracellular NCOA4 level incubated for 24 hrs by Western blot analysis; type: cell-based
# Chain of von Hippel-Lindau disease tumor suppressor/Nuclear receptor coactivator 4 (Mus musculus, UniProt P40338+Q5U4H9) (P40338 whole entry): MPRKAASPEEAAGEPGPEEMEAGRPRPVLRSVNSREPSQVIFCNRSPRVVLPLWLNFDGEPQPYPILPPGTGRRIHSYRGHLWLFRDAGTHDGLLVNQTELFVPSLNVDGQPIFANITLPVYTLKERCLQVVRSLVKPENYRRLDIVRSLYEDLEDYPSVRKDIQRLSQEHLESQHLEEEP
# Chain of von Hippel-Lindau disease tumor suppressor/Nuclear receptor coactivator 4 (Mus musculus, UniProt P40338+Q5U4H9) (Q5U4H9 whole entry): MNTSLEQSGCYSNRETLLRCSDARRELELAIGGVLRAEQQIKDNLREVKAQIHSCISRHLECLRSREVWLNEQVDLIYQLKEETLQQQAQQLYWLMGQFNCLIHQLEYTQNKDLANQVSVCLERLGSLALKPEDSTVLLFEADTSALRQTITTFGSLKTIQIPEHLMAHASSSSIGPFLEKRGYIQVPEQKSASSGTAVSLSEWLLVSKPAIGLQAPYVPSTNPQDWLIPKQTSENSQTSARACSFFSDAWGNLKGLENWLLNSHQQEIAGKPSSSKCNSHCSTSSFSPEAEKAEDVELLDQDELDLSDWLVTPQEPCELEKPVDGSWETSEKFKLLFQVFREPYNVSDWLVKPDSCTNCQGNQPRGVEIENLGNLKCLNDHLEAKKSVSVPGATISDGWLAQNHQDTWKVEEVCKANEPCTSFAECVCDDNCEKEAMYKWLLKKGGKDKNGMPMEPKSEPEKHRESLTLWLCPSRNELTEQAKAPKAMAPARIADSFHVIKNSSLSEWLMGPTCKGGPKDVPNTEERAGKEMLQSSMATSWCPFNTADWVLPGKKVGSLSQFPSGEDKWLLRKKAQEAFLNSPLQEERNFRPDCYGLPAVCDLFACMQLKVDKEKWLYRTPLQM
# Mus musculus [13] = experiment: Inhibition of CCl4-induced ferroptosis in acute liver injury C57BL/6 mouse model assessed as reduction in ptgs2 mRNA level in liver at 10 to 30 mg/kg, ip pretreated with compound for 3 hrs followed by CCl4 induction and measured after 12 to 24 hrs; type: functional, organism-based; settings: dose 10-30 mg/kg, time 15-27 hrs
# AML12 [14] = experiment: Effect on FTL mRNA expression in mouse AML12 cells at 0.12 to 10 uM measured for 36 hrs by RT-qPCR analysis; type: functional, cell-based; settings: dose 0.12-10 µM
# AML12 [15] = experiment: Protection against FINO2-induced ferroptosis in mouse AML12 cells assessed as reduction in lipid peroxidation level at 200 nM measured for 48 hrs; type: functional, cell-based
# AML12 [16] = experiment: Effect on FTH1 mRNA expression in mouse AML12 cells at 0.12 to 10 uM measured for 36 hrs by RT-qPCR analysis; type: functional, cell-based; settings: dose 0.12-10 µM
# [17] = biological target: T1, von Hippel-Lindau disease tumor suppressor/Nuclear receptor coactivator 4; experiment: PROTAC activity at NCOA4/VHL in human HeLa cells assessed as downregulation of NCOA4 level measured after 3 hrs by Western blot analysis; type: cell-based
# Mus musculus [18] = experiment: Inhibition of CCl4-induced ferroptosis in acute liver injury C57BL/6 mouse model assessed as attenuation of iron deposition in liver at 10 to 30 mg/kg, ip pretreated with compound for 3 hrs followed by CCl4 induction and measured after 12 to 24 hrs by perls blue staining based analysis; type: functional, organism-based; settings: dose 10-30 mg/kg, time 15-27 hrs
# AML12 [19] = experiment: Upregulation of FTL level in mouse AML12 cells incubated for 24 hrs by Western blot analysis; type: functional, cell-based; settings: dose <= 10.0 µM
# Mus musculus [20] = experiment: Inhibition of CCl4-induced ferroptosis in acute liver injury C57BL/6 mouse model assessed as downregulation of FTL level at 10 to 30 mg/kg, ip pretreated with compound for 3 hrs followed by CCl4 induction and measured after 12 to 24 hrs by Western blot analysis; type: functional, organism-based; settings: dose 10-30 mg/kg, time 15-27 hrs
# AML12 [21] = experiment: Protection against CCl4-induced ferroptosis in mouse AML12 cells assessed as reduction in Fe2+ level at 200 to 1000 nM FerroOrange dye based fluorescence analysis; type: functional, cell-based; settings: dose 200-1000 nM
# AML12 [22] = experiment: Protection against Brequinal-induced ferroptosis in mouse AML12 cells assessed as reduction in lipid peroxidation level at 200 nM measured for 48 hrs; type: functional, cell-based
# AML12 [23] = experiment: Protection against CCl4-induced ferroptosis in mouse AML12 cells assessed as cell viability in presence of Deferoxamine; type: functional, cell-based
# Mus musculus [24] = experiment: Inhibition of CCl4-induced ferroptosis in acute liver injury C57BL/6 mouse model assessed as inhibition of AST level at 10 to 30 mg/kg, ip pretreated with compound for 3 hrs followed by CCl4 induction and measured after 12 to 24 hrs; type: functional, organism-based; settings: dose 10-30 mg/kg, time 15-27 hrs
# Mus musculus [25] = experiment: Inhibition of CCl4-induced ferroptosis in acute liver injury C57BL/6 mouse model assessed as decrease in IL-1beta expression in liver at 10 to 30 mg/kg, ip pretreated with compound for 3 hrs followed by CCl4 induction and measured after 12 to 24 hrs by q-PCR analysis; type: functional, organism-based; settings: dose 10-30 mg/kg, time 15-27 hrs
# AML12 [26] = experiment: Protection against iFSP-induced ferroptosis in mouse AML12 cells assessed as increase in cell viability at 200 nM measured for 48 hrs by cell counting-lite 2.0 analysis; type: functional, cell-based
# Mus musculus [27] = experiment: Inhibition of CCl4-induced ferroptosis in acute liver injury C57BL/6 mouse model assessed as reduction in inflammation at 10 to 30 mg/kg, ip pretreated with compound for 3 hrs followed by CCl4 induction and measured after 12 to 24 hrs by H and E staining based analysis; type: functional, organism-based; settings: dose 10-30 mg/kg, time 15-27 hrs
smiles,measurement,setting,value
Cc1ncsc1-c1ccc(CNC(=O)[C@@H]2C[C@@H](O)CN2C(=O)[C@H](NC(=O)CCCC(=O)NCCOCCOCCOCCOc2ccc3c(c2)CCN(c2cccc(-c4nc5ccc(N6CCN(C)CC6)cc5[nH]4)c2)C3)C(C)(C)C)cc1,Activity,AML12 [1],Active
same,inhibition,Mus musculus [2],Active
same,inhibition,Mus musculus [3],Active
same,Activity,AML12 [4],Active
same,inhibition,Mus musculus [5],Active
same,inhibition,Mus musculus [6],Active
same,Activity,AML12 [7],Active
same,Activity,AML12 [8],Active
same,Activity,[9],Active
same,EC50,AML12 [10],9 nM
same,inhibition,Mus musculus [11],Active
same,DC50,[12],202 nM
same,inhibition,Mus musculus [13],Active
same,Activity,AML12 [14],inactive
same,Activity,AML12 [15],Active
same,Activity,AML12 [16],inactive
same,Activity,[17],Active
same,inhibition,Mus musculus [18],Active
same,Activity,AML12 [19],Dose-Dependent Effect
same,inhibition,Mus musculus [20],Active
same,Activity,AML12 [21],Active
same,Activity,AML12 [22],Active
same,EC50,AML12 [23],410 nM
same,inhibition,Mus musculus [24],Active
same,inhibition,Mus musculus [25],Active
same,Activity,AML12 [26],Active
same,inhibition,Mus musculus [27],Active
